Results from a melting point compilation (Tetko et al.; mined from patent text by program, amines drawn as free bases though some values may be those of a salt).

melting point [°C]	Compound
233 to 236	Nc1ccc2c(c1)C(=O)N(c1ccc3ccsc3c1)C2
102 to 103	CCOC(=O)CN=C(c1ccccc1)c1ccccc1NC1CCN(C)CC1
99.5 to 100	O=C(Nc1ccc(Cl)cc1)/C(Br)=C/Br
130 to 131	O=C1CCN2C(=O)OCc3cccc1c32
177	Cn1c(=O)cc(-c2ccccc2)c2cc(C(COCc3ccc(Cl)cc3)(c3ccc(Cl)cc3)n3ccnc3)ccc21 (stereo not drawn)
192 to 194	CSC(=NCCSCc1ncccc1O)NC#N
295 to 297	CC1=Nc2ccc(S(N)(=O)=O)cc2S(=O)(=O)N1
128	O=C1c2cccc(NC(=S)Nc3cnccn3)c2C2CC3(CCN12)SCCS3 (stereo not drawn)
258	Cc1sc(NC=O)c(C#N)c1Cl
145	COc1ccc2ccc(N3C(=O)c4ccccc4C3OC(=O)Oc3ccccc3)nc2n1 (stereo not drawn)
212 to 213	Cc1ccc2sc(S(N)(=O)=O)cc2c1
> 270	CC1OC(=Nc2nccs2)c2c1nc1ccccc1c2O (stereo not drawn)
178 to 180	CC(C)CC(CO)NC(=O)C(Cc1cn(NC(=O)OCc2ccccc2)cn1)NC(=O)CCCc1ccccc1 (single isomer, unassigned; (-))
192	OC[C@@H]1Cc2ccccc2CN1C(=S)Nc1cccnc1
158 to 160	NC(=O)CCCCC1OCC(c2cccc3ccccc23)CO1 (stereo not drawn)
113 to 115	NC(c1ccccc1)c1ccc(O)cc1 (stereo not drawn)
96 to 98	O=C(CCCCO)NCC1Cc2ccccc2Cc2ccccc21 (stereo not drawn)
188 to 191	N=C(NCCCCC1CCN(CC(O)CO)CC1)NC(=O)c1nc(Cl)c(N)nc1N (stereo not drawn)
15	C=CCOc1ccccc1S(=O)(=O)NC(=O)n1nc(SCCF)n(C2CC2)c1=O
228 to 230	CS(=O)(=O)c1csc(C(=O)C2C(=O)N(C(N)=O)c3ccc(Cl)cc32)c1 (stereo not drawn)
155 to 156	CSc1nc(NCC=C(C)C)c2ccnc-2[nH]1
77 to 79	COc1cc2c(cc1OC)C(C)(CCCCl)OCC2 (stereo not drawn)
141 to 143	O=C(c1cccnc1)N1CC2CCc3ccccc3C2=N1 (stereo not drawn)
118 to 119	N#Cc1ccccc1SC1SCC(O)C(O)C1O (stereo not drawn)
59 to 61	Cc1nc(Cc2ccc(O)cc2)c2c(c1OCCCCNC(C)C)COC2

melting point [°C]	Compound
68 to 69	CCCCCCCCCCN=C1SC(=CC(=O)O)C(=O)N1CCCCCCCCCC
53 to 55	COc1ccc(C(=O)c2cccc(OC)c2)cc1
83 to 85	O=C(O)CCCCC[C@H]1CC[C@@H](O)CC1
210 to 211	CC(O)c1cn(C2CCc3c(F)cc(F)cc3C2)c(=S)[nH]1 (stereo not drawn)
107 to 108	CCOC(=O)Cn1c(-c2ccc(OC)cc2)nc2cccnc21
173 to 174	C[C@@H](NC(=O)c1ccc(-c2ccc(Cl)cc2)cc1)[C@](O)(Cn1cncn1)c1ccc(F)cc1F
138 to 139	CCOc1ccc2c(=O)cc(-c3ccccc3)oc2c1
119 to 121	N#Cc1cc(C(=O)Cl)n(/C=C/c2ccccc2)c1
178 to 179	CCNC(=O)NC1CCCc2ccccc21 (stereo not drawn)
263	Cc1[nH]c(=O)[nH]c(=O)c1N1CCN(Cc2ccccc2)CC1
226 to 228	O=c1ccccn1[C@@H]1c2cc([N+](=O)[O-])ccc2OC(CF)(CF)[C@H]1O (relative stereo)
178 to 180	CCOCc1nc2c(N)nc3ccccc3c2n1Cc1cc(C)no1
132	COC(=O)C=CC=Cc1cc([N+](=O)[O-])ccc1Cl
225 to 230	CS(=O)(=O)Nc1ccc(NC(=O)c2c[nH]c(=S)n2C2CCc3c(F)cc(F)cc3C2)cc1 (stereo not drawn)
176 to 179	Cc1nnc(Sc2nc3cc(C(=O)c4ccccc4)ccc3nc2C(F)(F)F)s1
256 to 258	CC(c1oc2ccc(Br)cc2c(=O)c1-c1ccccc1F)n1cnc2c(N)ncnc21 (stereo not drawn)
128 to 131	COc1ccc(-c2cc(CN)c(=O)n(Cc3ccc(Cl)cc3)n2)cc1F
307 to 310	CCCc1nc2c(C)cc(-c3nc4ccccc4n3C)cc2n1Cc1ccc(-c2ccccc2S(=O)(=O)O)cc1
241 to 245	O=C(O)c1cc(-c2ccnc(Nc3cccc(C(F)(F)F)c3)n2)ccn1
122 to 123	O=C(O)CCc1oc(Sc2nncn2-c2ccccc2)nc1-c1ccc(Cl)cc1
212 to 215	CNC(=O)NC1CCC(=O)c2sccc21 (stereo not drawn)
106 to 109	CC(C(=O)O)c1ccc(Nc2ccc(Cl)cc2)cc1 (stereo not drawn)
100 to 135	CC1c2ccccc2CC(C)(O)Cc2ccccc21 (stereo not drawn)
178	CC(=O)c1[nH]c2cc(Cl)cc(Cl)c2c1C
65 to 66	O=C(CCCCC1CCSS1)N1CCc2ccccc21 (stereo not drawn)

melting point [°C]	Compound
183 to 185	NC(=O)NC(=O)c1ccccn1
208 to 210	Cc1nc(N2C[C@H](C)N(Cc3ccc(F)cc3)C2=O)sc1C(=O)O
175 to 176	COC[C@H](C)Oc1cc(N(C)S(=O)(=O)c2ccccn2)c2[nH]c(C3=NCC(CN4CCS(=O)CC4)S3)cc2c1 (stereo partly drawn)
261 to 263	O=c1ccc(-c2ccc(-n3ccnc3)nc2)n[nH]1
39 to 40	CCCCCCCCCCCCCCCCC(C)C(=S)OC (stereo not drawn)
174 to 176	NNc1nc2ccc(C(F)(F)F)cc2n(OCc2ccccc2)c1=O
146 to 147	CS(=O)(=O)c1c(Cl)nc(Cl)nc1Cl
119 to 122	N#Cc1ccc([C@@H]2[C@@H]3C(=O)N(CC4CCCCC4)C(=O)[C@@H]3[C@H]3CCCN32)cc1 (racemic)
185 to 195	N#Cc1cnc2cnc(F)cc2c1Nc1cccc(Br)c1
164 to 166	COC1(c2cccc(S(=O)(=O)c3ccc4c(c3)C(C)(C)C(=O)N4C)c2)CCOCC1
78 to 79	COc1cc(CCCCCCCO)ccc1OCc1nc(-c2ccccc2)oc1C
148 to 149	O=C(Nc1ccc(SC(F)(F)F)c(Cl)c1)c1cc(Cl)c2ccccc2c1O
167 to 169	COc1ccc(C[C@@H]2COc3ccc(OCc4ccc5ccccc5n4)cc3[C@@H]2O)cc1C(=O)O (relative stereo)
110	CC1(C)COc2cc(Br)ccc2C(O)(c2ccccn2)C1 (stereo not drawn)
202 to 204	COC(=O)c1cc(S(=O)(=O)NC(=O)Nc2nc(C)cc(C)n2)c[nH]1
250 to 255	Clc1cc2c(cc1Cl)Sc1cc(Cl)c(Cl)cc1S2
> 310	Nc1ccc(F)c(F)c1NC(=S)Nc1c(Cl)cccc1Cl
153 to 155	CCOC(=O)CCc1nnc(CNC(=O)c2ccc(Cl)c(Cl)c2)n1-c1sc(CC)cc1C(=O)c1ccccc1Cl
109 to 110	CON=C(C(=O)OC)c1ccccc1Oc1ccccc1
216	COc1ccc(-c2nc(N)ncc2-c2ccc(=O)n(C(C)C)n2)cc1
> 300	Cc1cc2c(c3ccc(=O)[nH]c13)O[C@@H](CN)[C@@H]2CO (racemic)
108 to 110	CN(C)C=Nc1c(Cl)cc(N=Cc2ccc(-c3ccccc3)cc2)cc1Cl
62 to 64	CNC(=O)c1cc2c(Oc3ccc(Cl)c(F)c3)cncc2s1
88 to 91	COc1ccc(-c2ccc(Cl)cc2)cc1OC1CCCC1
195 to 197	Cc1nc(N2CCN(Cc3ccc(C(F)(F)F)cc3)C2=O)sc1C(=O)O

melting point [°C]	Compound
> 300	Cn1cnc2nc(-c3ccc(Br)cc3)nn2c1=S
136 to 138	COc1cccc(-c2nc3n(n2)Cc2ccc(OC)cc2-3)c1
84 to 86	C(#CCN(c1ccccc1)c1ccccc1)CN(c1ccccc1)c1ccccc1
119 to 120	CCCCOC(=O)c1c(C)nc2cc(OC)c(OC)cc2c1-c1ccc(OC)c(OC)c1
188 to 189	O=[N+]([O-])c1ccc(-n2ncnc2-c2cnccn2)cc1
106 to 119	NC1=NC(c2cccc(-c3cccnc3F)c2)(c2ccc3c(c2)OCO3)C2=NCCCN12 (stereo not drawn)
59 to 60	CCOC1OC(C(O)CO)C(O)C1O (stereo not drawn)
156 to 157	CCCCC(CCCC)(CC(=O)Nc1cccc(OCc2ccc3ccc(F)cc3n2)c1)C(=O)O
228 to 230	CSc1nc(CC2CCN(c3ccc(F)cc3)CC2)nc(C(=O)NCC(=O)O)c1O
99 to 100	CC(C)=CCN1CCOC(CN2c3ccccc3C=Cc3ccccc32)C1 (stereo not drawn)
178 to 180	Oc1ccc2[nH]cc(C3CCN(CCCCc4c[nH]c5ccccc45)CC3)c2c1
165 to 167	O=C1N(Cc2ccc(C(F)(F)F)o2)c2cccc(Br)c2C12COc1cc3c(cc12)CCO3 (stereo not drawn)
191 to 192	Cc1c(-c2ccccc2)oc2c(C(=O)CCC(=O)O)cccc2c1=O
71 to 73.5	COc1cc(Oc2nn(C)c(C(F)(F)F)c2Cl)ccc1[N+](=O)[O-]
85 to 87	COC(=O)CN(c1ccccc1)c1ccc(OC)cc1C(=O)OC
109 to 110	O=C(Cc1ccc(F)cc1)c1ccccc1
185	CNc1c([N+](=O)[O-])c(Br)nn1C
124 to 125	COc1cc(Cl)c(NN)c(Cl)c1
< 50	O=[N+]([O-])c1ccccc1OCc1ccccc1
194 to 200	Clc1ccc2nc(Cl)c3ncn(-c4ccccc4Cl)c3c2c1
161 to 162	O=C(Nc1ccccc1)NC1CCN(Cc2ccccc2)CC1
176 to 178	CN(C)c1cc2c(cc1Cl)NC(=O)CC(c1cccc(-c3csc(CO)n3)c1)=N2
215 to 217	N#Cc1ccc2c(c1)C(C(=O)O)c1ccccc1CO2 (stereo not drawn)

Compound	melting point [°C]
CC(C)(C)N(N=O)C1CCCCC1	87
COC(c1nnc2n1-c1ccc(Cl)cc1C(c1ccccc1)=NC2)C1COC(C)(C)O1 (stereo not drawn)	130 to 134
O=c1oc2ccccc2c(O)c1C1CC(c2ccc(Oc3ccc(-c4ccccc4)cc3)cc2)Cc2ccccc21 (stereo not drawn)	124 to 127
CC(=O)OC1CC(=O)C2(C)CCC3C(CCC4CC(=O)CC(C)(O)C43C)C12 (stereo not drawn)	170
CC(C)(C)NCC(O)c1cc(Br)c(N)c([N+](=O)[O-])c1 (stereo not drawn)	151 to 152
